Assay results from ChEMBL document CHEMBL1201862, “PubChem BioAssay data set” (2004).
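Five concentrations, 48 hours, 96-well plates. GI50 is the concentration that inhibits growth by half.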 Activity calls are given as the source filed them. Cut-off read from the data, not from the text of the source: active = GI50 up to about 1.1 µM and inactive = higher. Peptide text beside a SMILES is read from it. * marks the point of attachment. Cbz = O=C(OCc1ccccc1)*

Key:
Assay in all cases: NCI anticancer screen, dose series, 48 h
IGROV-1 = tested on: IGROV-1
MDA-N = tested on: MDA-N
OVCAR-5 = tested on: OVCAR-5
OVCAR-8 = tested on: OVCAR-8
COLO 205 = tested on: COLO 205
NCI-H226 = tested on: NCI-H226
CAKI-1 = tested on: CAKI-1
M14 = tested on: M14
MDA-MB-435 = tested on: MDA-MB-435
T47D = tested on: T47D
UACC-62 = tested on: UACC-62
ACHN = tested on: ACHN
Hs-578T = tested on: Hs-578T
K562 = tested on: K562
HCC 2998 = tested on: HCC 2998
MDA-MB-231 = tested on: MDA-MB-231
SNB-19 = tested on: SNB-19
SF-539 = tested on: SF-539
SN12C = tested on: SN12C

| Structure (SMILES) | GI50 (IGROV-1) | GI50 (MDA-N) | GI50 (OVCAR-5) | GI50 (OVCAR-8) | GI50 (COLO 205) | GI50 (NCI-H226) | GI50 (CAKI-1) | GI50 (M14) | GI50 (MDA-MB-435) | GI50 (T47D) | GI50 (UACC-62) | GI50 (ACHN) | GI50 (Hs-578T) | GI50 (K562) | GI50 (HCC 2998) | GI50 (MDA-MB-231) | GI50 (SNB-19) | GI50 (SF-539) | GI50 (SN12C) |
| --- | --- | --- | --- | --- | --- | --- | --- | --- | --- | --- | --- | --- | --- | --- | --- | --- | --- | --- | --- |
| NCC(=O)C(O)C(O)C(O)CO (stereo unspecified) | > 100 µM (inactive) | > 100 µM (inactive) | > 100 µM (inactive) | > 100 µM (inactive) | > 100 µM (inactive) | > 100 µM (inactive) | > 100 µM (inactive) | > 100 µM (inactive) | > 100 µM (inactive) | > 100 µM (inactive) | > 100 µM (inactive) | > 100 µM (inactive) | > 100 µM (inactive) | > 100 µM (inactive) | > 100 µM (inactive) | > 100 µM (inactive) | > 100 µM (inactive) | > 100 µM (inactive) | > 100 µM (inactive) |
| CCOC(=O)C(C)NC(=O)C(C)NC(=O)C(C)NC(=O)C(C)NC(=O)C(C)NC(=O)C(C)NC(=O)C(C)NC(=O)OCc1ccccc1 (stereo unspecified) (Cbz-AAAAAAA-OEt; configuration not given here) | > 100 µM (inactive) | > 100 µM (inactive) | > 100 µM (inactive) | > 100 µM (inactive) | > 100 µM (inactive) | > 100 µM (inactive) | > 100 µM (inactive) | > 100 µM (inactive) | > 100 µM (inactive) | > 100 µM (inactive) | > 100 µM (inactive) | > 100 µM (inactive) | > 100 µM (inactive) | > 100 µM (inactive) | > 100 µM (inactive) | > 100 µM (inactive) | > 100 µM (inactive) | > 100 µM (inactive) | > 100 µM (inactive) |
| CC(C)(/N=N/C(C)(C)C1=NCCN1)C1=NCCN1 | > 100 µM (inactive) | > 100 µM (inactive) | > 100 µM (inactive) | > 100 µM (inactive) | > 100 µM (inactive) | > 100 µM (inactive) | > 83.9 µM (inactive) | > 85.9 µM (inactive) | > 100 µM (inactive) | 76.6 µM (inactive) | > 100 µM (inactive) | > 100 µM (inactive) | > 100 µM (inactive) | > 56.5 µM (inactive) | > 100 µM (inactive) | > 100 µM (inactive) | > 100 µM (inactive) | > 67.1 µM (inactive) | > 78.5 µM (inactive) |
| COC(=O)C(Cc1c[nH]c2ccccc12)NC1=Nc2ccncc2S(=O)(=O)N1c1cccc(OC(C)C)c1 (stereo unspecified) | 18.7 µM (inactive) | 67.3 µM (inactive) | > 100 µM (inactive) | 30.3 µM (inactive) | 30.3 µM (inactive) | > 100 µM (inactive) | 32.4 µM (inactive) | 41.6 µM (inactive) | 45.9 µM (inactive) | 36.1 µM (inactive) | 25.9 µM (inactive) | 41.1 µM (inactive) | > 100 µM (inactive) | 41.8 µM (inactive) | 48.8 µM (inactive) | 49.4 µM (inactive) | 68.1 µM (inactive) | 80.5 µM (inactive) | 48.1 µM (inactive) |
| C/C(=N\Nc1nc2ccccc2s1)c1cc(C)ncn1 | 0.824 µM (active) | 3.98 µM (inactive) | 1.27 µM (inactive) | 0.29 µM (active) | 0.0543 µM (active) | 0.427 µM (active) | 0.145 µM (active) | 0.474 µM (active) | 2.81 µM (inactive) | 0.206 µM (active) | 0.979 µM (active) | 0.199 µM (active) | 0.738 µM (active) | 0.129 µM (active) | 1.72 µM (inactive) | 0.286 µM (active) | 6.68 µM (inactive) | 1.38 µM (inactive) | 0.392 µM (active) |
| O=C(O)CNC(=O)c1ccc(-c2ccccc2)cc1 | > 100 µM (inactive) | > 100 µM (inactive) | > 100 µM (inactive) | > 100 µM (inactive) | > 100 µM (inactive) | > 100 µM (inactive) | > 100 µM (inactive) | > 100 µM (inactive) | > 100 µM (inactive) | > 100 µM (inactive) | > 100 µM (inactive) | > 100 µM (inactive) | 75.7 µM (inactive) | > 100 µM (inactive) | > 100 µM (inactive) | > 100 µM (inactive) | > 100 µM (inactive) | > 100 µM (inactive) | > 100 µM (inactive) |
| N#C/C(C(=O)NCc1ccccc1)=C(/N)N1CCCC1 | > 100 µM (inactive) | > 100 µM (inactive) | > 100 µM (inactive) | > 100 µM (inactive) | > 100 µM (inactive) | > 100 µM (inactive) | 39.6 µM (inactive) | > 100 µM (inactive) | > 100 µM (inactive) | > 100 µM (inactive) | > 100 µM (inactive) | > 100 µM (inactive) | > 100 µM (inactive) | > 100 µM (inactive) | > 100 µM (inactive) | > 100 µM (inactive) | > 100 µM (inactive) | > 100 µM (inactive) | > 100 µM (inactive) |
| COc1cc2cc(C(=O)N3CC(CCl)c4ccc([N+](C)(C)Cc5ccc([N+](=O)[O-])cc5)cc43)[nH]c2c(OC)c1OC (stereo unspecified) | 1.97 µM (inactive) | 3.53 µM (inactive) | 3.87 µM (inactive) | 1.75 µM (inactive) | 3.25 µM (inactive) | 2.82 µM (inactive) | 2.05 µM (inactive) | 5.68 µM (inactive) | 4.54 µM (inactive) | 3.48 µM (inactive) | 2.13 µM (inactive) | 2.29 µM (inactive) | 9.62 µM (inactive) | 1.92 µM (inactive) | 1.41 µM (inactive) | 7.55 µM (inactive) | 8.53 µM (inactive) | 1.78 µM (inactive) | 4.55 µM (inactive) |
| CSc1nc2ccccc2c(=O)n1-c1cccc(C)c1 | 39.2 µM (inactive) | 23.6 µM (inactive) | > 100 µM (inactive) | > 100 µM (inactive) | 48.9 µM (inactive) | > 100 µM (inactive) | 95.1 µM (inactive) | 95.5 µM (inactive) | 29.1 µM (inactive) | 29.2 µM (inactive) | 71 µM (inactive) | 97.9 µM (inactive) | 47.4 µM (inactive) | 33 µM (inactive) | 15.6 µM (inactive) | > 100 µM (inactive) | > 100 µM (inactive) | 78.9 µM (inactive) | > 100 µM (inactive) |
| Brc1ccc(/N=C/C=C(\Nc2ccc(Br)cc2)C23CC4CC(CC(C4)C2)C3)cc1 | 11.3 µM (inactive) | 12.4 µM (inactive) | 14.7 µM (inactive) | 19.4 µM (inactive) | 9.62 µM (inactive) | 97.3 µM (inactive) | 11.4 µM (inactive) | 9.75 µM (inactive) | 5.11 µM (inactive) | 8.07 µM (inactive) | 1.17 µM (inactive) | 11.1 µM (inactive) | 27.4 µM (inactive) | 4.5 µM (inactive) | 16 µM (inactive) | 15.6 µM (inactive) | 29.6 µM (inactive) | 20 µM (inactive) | 20.6 µM (inactive) |
| CC1CC(C)CC(NC2=NCCO2)C1 (stereo unspecified) | > 100 µM (inactive) | > 100 µM (inactive) | > 100 µM (inactive) | > 100 µM (inactive) | > 100 µM (inactive) | > 100 µM (inactive) | > 100 µM (inactive) | > 100 µM (inactive) | > 100 µM (inactive) | > 100 µM (inactive) | > 100 µM (inactive) | > 100 µM (inactive) | > 100 µM (inactive) | > 100 µM (inactive) | > 100 µM (inactive) | > 100 µM (inactive) | > 100 µM (inactive) | > 100 µM (inactive) | > 100 µM (inactive) |
| COC(=O)[C@@H]1[C@H](OC(C)=O)CCC2[C@@]3(C[C@@H](c4ccoc4)O[C@@H]3OC)[C@H](C)CC[C@]21C(=O)OC (stereo partly specified) | > 25 µM (inactive) | > 25 µM (inactive) | > 25 µM (inactive) | > 25 µM (inactive) | > 25 µM (inactive) | > 25 µM (inactive) | > 25 µM (inactive) | > 25 µM (inactive) | > 25 µM (inactive) | > 25 µM (inactive) | > 25 µM (inactive) | > 25 µM (inactive) | > 25 µM (inactive) | > 25 µM (inactive) | > 25 µM (inactive) | > 25 µM (inactive) | > 25 µM (inactive) | > 25 µM (inactive) | > 25 µM (inactive) |
| NC1(C(=O)OCc2ccccc2)CCCC1 | 18.5 µM (inactive) | 20.1 µM (inactive) | 28.4 µM (inactive) | 12.9 µM (inactive) | 28.1 µM (inactive) | 30.1 µM (inactive) | 19.4 µM (inactive) | 14.5 µM (inactive) | 15.1 µM (inactive) | 25.3 µM (inactive) | 15.9 µM (inactive) | 15.2 µM (inactive) | 23.7 µM (inactive) | 14.8 µM (inactive) | 28 µM (inactive) | 15.8 µM (inactive) | 21.2 µM (inactive) | 11.2 µM (inactive) | 25.1 µM (inactive) |
| CCOC(=O)Nc1nc(-c2ccccc2)c(C)s1 | 44.2 µM (inactive) | > 100 µM (inactive) | > 100 µM (inactive) | > 100 µM (inactive) | 96.6 µM (inactive) | > 100 µM (inactive) | > 100 µM (inactive) | > 100 µM (inactive) | > 100 µM (inactive) | 47.3 µM (inactive) | > 100 µM (inactive) | > 100 µM (inactive) | > 100 µM (inactive) | 18.3 µM (inactive) | > 100 µM (inactive) | > 100 µM (inactive) | > 100 µM (inactive) | > 100 µM (inactive) | > 100 µM (inactive) |
